The source of these data is patent US20160075682A1, “INHIBITORS OF NICOTINAMIDE PHOSPHORIBOSYLTRANSFERASE, COMPOSITIONS, PRODUCTS AND USES THEREOF” (UNIVERSITÀ DEGLI STUDI DEL PIEMONTE ORIENTALE "AMEDEO …, priority 2013, published 2016).

A short description of series [1]: Microsomal stability with rat liver microsomes. It counts as in vitro ADME, Male Wistar rat. The following applies: 50 μM substrate, 1.0 mg/mL protein, 60 minutes at 37° C., pH 7.4. Here is the method:
(§1) Male Wistar rat liver microsomes (RLM), (protein concentration: 25 mg/ml determined using the Omura and Sato method, total P450: 0.64 nmol/mg protein) were used throughout this study and prepared using an internal protocol. The cryopreserved pooled human liver microsomes (HLM), (pooled mixed sex, ten individual donors, protein concentration: 20 mg/ml, total P450: 0.36 nmol/mg) were purchased from BD Gentest™ (Woburn, Mass.) and used throughout this study.
(§2) The standard incubation mixture (1 ml final volume), was carried out in a 50 mM TRIS (Tris[hydroxymethyl]aminomethane) buffer (pH 7.4) containing 10 μl of acetonitrile (1% of total volume), and 50 μM substrate compounds. After pre-equilibration of the mixture, an appropriate volume of RLM or HLM suspension was added to give a final protein concentration of 1.0 mg/mL. The mixture was shaken for 60 minutes at 37° C. Control incubations were carried out without microsomes. Each incubation was stopped by addition of 1 ml ice-cold acetonitrile, vortexed and centrifuged at 11,000 r.p.m. for 5 min. The supernatants were analysed by LC-DAD-UV and LC-ESI-MS systems to determine the metabolic stability (% substrate residue) and the structure of metabolites respectively (Table 1).
(§3) A Shimadzu HPLC system (Shimadzu, Kyoto, Japan), consisting of two LC-10AD Vp module pumps, an SLC-10A Vp system controller, an SIL-10AD Vp autosampler, and a DGU-14-A on-line degasser were used for the analysis. Chromatographic separation was performed on a Phenomenex Luna C18(2) 150×4.6 mm (5 μm) (Phenomenex srl, Castel Bolognese, Italy) as a stationary phase protected by a C18 SecurityGuard (Phenomenex srl, Castel Bolognese, Italy). The SPD-M10Avp photodiode array detector was used to detect the analytes. LC-Solution 1.24 software was used to process the chromatograms. Aliquots (20 μL) of supernatants obtained from incubations were injected onto the HPLC system and eluted with a mobile phase (flow rate 1.0 mL/min) consisting of a A: 0.5% formic acid solution, B: acetonitrile/methanol 8:2. A Thermo Finningan LCQ Deca XP plus system equipped with a quaternary pump, a Surveyor AS autosampler, a Surveyor photodiode array detector and a vacuum degasser was used for LC/MS analyses (Thermo Electron Corporation, Waltham, Mass.). All the chromatographic separations were performed on a Phenomenex Luna C18(2)150×2 mm (4 μm) (kept at a 35° C.) as a stationary phase protected by a C18 SecurityGuard (Phenomenex srl, Castel Bolognese, Italy). Aliquots (2.0 μl) of supernatants obtained from incubations were injected onto the system and eluted with a mobile phase (flow rate 0.2 ml/min) consisting of a A: 0.2% formic acid solution, B: acetonitrile/methanol 8:2. The eluate was injected into the electrospray ion source (ESI) and MS and MS^n spectra were acquired and processed using Xcalibur® software. The operating conditions on the ion trap mass spectrometer were as follows: Positive mode, spray voltage, 5.30 kV; source current, 80 μA; capillary temperature, 350° C.; capillary voltage, 21.00 V; tube lens offset, 15.00 V; multipole 1 offset, −5.75 V; multipole 2 offset, −9.00 V; sheath gas flow (N2), 55 Auxiliary Units.

Series [2] in a line: Metabolites generated from hydrolyses in RLM or HLM incubations (LC-ESI-MS). The format is in vitro ADME, rat, human. The following applies: RLM or HLM incubation, 60 minutes at 37° C. The procedure:
as §1, §2, §3

The test system of series [3] is SH-SY5Y, HeLa. Kind of series: MTT cell proliferation assay and trypan blue count (cell viability). The following applies: cells treated for 48 and 72 hours; read-out: IC50 values (inhibition of cellular proliferation, MTT assay and trypan blue assay). The format is cell-based. Here is the method: Cell based assays were used to evaluate the possible cytotoxic effects of some compounds. To measure cytotoxic effects two different methods were used, a MTT cell proliferation assay and trypan blue count.
The Trypan blue assay is used to determine the number of viable cells present in a cell suspension. […] Briefly, 8×10^5 cells (SH-SY5Y, HeLa; obtained from ATCC, LGC standards, Sesto San Giovanni) were seeded in 24-well plates and treated for 48 and 72 hours. After the treatments, cells were stained with trypan blue and counted.
To analyze cell viability was used the colorimetric 3-(4,5-dimethylthiazol-2-yl)-2,5-diphenyltetrazolium bromide (MTT) method. The assay is based on the cleavage of the yellow tetrazolium salt MTT to purple formazan crystals by metabolic active cells. Since reduction of MTT can only occur in metabolically active cells, the level of activity is a measure of the viability of cells and conversely the cytotoxic effects of various treatments. Briefly, 8×10^5 cells (SH-SY5Y, code number CRL-2266; and HeLa, code number CCL-2) were seeded in 24-well plates and treated for 48 and 72 hours. Compounds were dissolved in DMSO and were added to the cells to give a final DMSO concentration no greater than 0.5%. Cells were washed once in Locke buffer and 300 μl of MTT (250 μg/ml in Locke buffer) were added before returning the cells to the incubator for 1 h to allow the formation of the purple formazan crystals. After 1 h, 600 μl of isopropanol/0.1 M HCl were added to each well, and the absorbance was read at 570 nm in a plate reader (Victor3V, PerkinElmer Life Sciences). For some compounds a dose response curve and IC50 for the effects on cell viability and proliferation were calculated. Cell lines used were originally purchased from ATCC (LGC standards. Sesto San Giovanni).
To evaluate the ability of each compound to inhibit cellular proliferation, cells were seeded in 24-well plates and treated for 48 and 72 hours. After the treatments the MTT assay and trypan blue assay were performed.

Series [4] in a line: Microsomal stability with human liver microsomes. It counts as in vitro ADME. The following applies: 50 μM substrate, 1.0 mg/mL protein, 60 minutes at 37° C., pH 7.4. Here is the method: as §1, §2, §3
For orientation: Microsomes from liver hold many membrane-bound enzymes, among them those of drug oxidation.

The target of series [5] is T1, NAMPT (Homo sapiens, UniProt P43490).
T1 construct: endogenous in cells; host or cells: SH-SY5Y and HeLa
Kind of series: Direct inhibition of NAMPT enzymatic activity (Cyclex NAMPT colorimetric Assay Kit). The format is biochemical. The following applies: as assessed with a cycling assay. Here is the method: Determination of the direct activity of compounds on NAMPT was performed using a commercial kit, Cyclex NAMPT colorimetric Assay Kit.

As usually defined, the melting point is the temperature of the solid-liquid transition.

T1 sequence (P43490 whole entry): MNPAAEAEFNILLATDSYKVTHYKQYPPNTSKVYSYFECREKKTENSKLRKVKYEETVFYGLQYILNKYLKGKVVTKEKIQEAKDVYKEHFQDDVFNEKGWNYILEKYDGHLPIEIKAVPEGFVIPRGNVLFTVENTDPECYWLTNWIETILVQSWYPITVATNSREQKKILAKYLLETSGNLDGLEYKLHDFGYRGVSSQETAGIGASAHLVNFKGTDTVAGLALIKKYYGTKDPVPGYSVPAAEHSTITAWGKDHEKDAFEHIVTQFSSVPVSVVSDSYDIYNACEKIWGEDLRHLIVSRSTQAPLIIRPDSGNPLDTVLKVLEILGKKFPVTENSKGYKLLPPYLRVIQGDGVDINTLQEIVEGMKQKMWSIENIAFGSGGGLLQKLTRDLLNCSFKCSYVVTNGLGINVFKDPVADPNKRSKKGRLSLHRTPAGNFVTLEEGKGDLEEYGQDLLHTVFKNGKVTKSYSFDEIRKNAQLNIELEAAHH

For `O=C(NCCc1ccc(Cn2cc(-c3cccnc3)nn2)cc1)Nc1ccccc1-c1ccccc1` [1-([1,1′-biphenyl]2-yl)-3-(4-((4-(pyridin-3-yl)-1H-1,2,3-triazol-1-yl)methyl)phenethyl)urea], the “RLM stability % substrate residue (area peak)” value in series [1] is more than 99%. The “Metabolites generated from hydrolyses” value in series [2] is recorded as “no”. In addition, the IC50 in series [3] was less than 300 nM. In addition, in series [4], the “HLM stability % substrate residue (area peak)” value is more than 99%.

For `O=C(NCCCCCCCn1cc(-c2cccnc2)nn1)Nc1ccccc1-c1ccccc1` [1-([1,1′-biphenyl]-2-yl)-3-(7-(4-(pyridin-3-yl)-1H-1,2,3-triazol-1-yl)heptyl)urea], the “RLM stability % substrate residue (area peak)” value in series [1] is reported as more than 95%. Moreover, the “Metabolites generated from hydrolyses” value in series [2] is recorded as “yes (traces)”. Besides, in series [5], the “inhibition of the enzymatic activity of NAMPT” value (shortened to “inhibition”) was “able to inhibit”. Besides, the IC50 in series [3] is less than 300 nM. Also, in series [4], the “HLM stability % substrate residue (area peak)” value is given as more than 98%.

Turning to `O=C(NCCCCCCCn1cc(-c2cccnc2)nn1)c1ccccc1-c1cccnc1` [2-(pyridin-3-yl)-N-(7-(4-(pyridin-3-yl)-1H-1,2,3-triazol-1-yl)heptyl)benzamide], the “RLM stability % substrate residue (area peak)” value in series [1] is more than 99%. For the same compound, the “Metabolites generated from hydrolyses” value in series [2] was “no”. In addition, in series [5], the “inhibition” value was “able to inhibit”. In addition, the IC50 in series [3] is less than 300 nM. The “HLM stability % substrate residue (area peak)” value in series [4] is recorded as more than 96%.

In the case of `Cc1ccccc1-c1ccccc1C(=O)NCCCCCCCn1cc(-c2cccnc2)nn1` [2′-methyl-N-(7-(4-(pyridin-3-yl)-1H-1,2,3-triazol-1-yl)heptyl)-[1,1′-biphenyl]-2-carboxamide], the “inhibition” value in series [5] was “able to inhibit”. For the same compound, the IC50 in series [3] was less than 300 nM.

In the case of `c1ccc(-c2ccccc2OCCc2ccc(Cn3cc(-c4cccnc4)nn3)cc2)cc1` [3-(1-(4-(2-([1,1′-biphenyl]-2-yloxy)ethyl)benzyl)-1H-1,2,3-triazol-4-yl)pyridine], in series [1], the “RLM stability % substrate residue (area peak)” value is given as more than 97%. In series [2], the “Metabolites generated from hydrolyses” value is given as “no”. Further, in series [3], the IC50 was less than 300 nM. In addition, in series [4], the “HLM stability % substrate residue (area peak)” value was more than 99%.

With `c1ccc(-c2ccccc2OCCCc2ccc(-n3cc(-c4cccnc4)nn3)cc2)cc1` [3-(1-(4-(3-([1,1′-biphenyl]-2-yloxy)propyl)phenyl)-1H-1,2,3-triazol-4-yl)pyridine], the melting point was in the range of 164 to 165 °C. Besides, the “RLM stability % substrate residue (area peak)” value in series [1] is more than 92%. Further, in series [2], the “Metabolites generated from hydrolyses” value is “no”. The IC50 in series [3] was less than 300 nM. The “HLM stability % substrate residue (area peak)” value in series [4] was more than 98%.

Consider `c1ccc(-c2ccccc2-c2cn(CCCCCCCn3cc(-c4cccnc4)nn3)nn2)cc1` [3-(1-(7-(4-([1,1′-byphenyl]-2-yl)-1H-1,2,3-triazol-1-yl)heptyl)-1H-1,2,3-triazol-4-yl)pyridine], for which, in series [1], the “RLM stability % substrate residue (area peak)” value is reported as more than 99%. The “Metabolites generated from hydrolyses” value in series [2] is listed as “no”. For the same compound, the IC50 in series [3] is less than 300 nM. In addition, the “HLM stability % substrate residue (area peak)” value in series [4] is given as more than 99%.

For `c1ccc(-c2ccccc2OCCCCCCCn2cc(-c3cccnc3)nn2)cc1` [3-(1-(7-([1,1′-biphenyl]-2-yloxy)heptyl)-1H-1,2,3-triazol-4-yl)pyridine], the “inhibition” value in series [5] is recorded as “able to inhibit”. In series [3], the IC50 was less than 300 nM.

With `c1ccc(-c2ccccc2OCCCCCCCCn2cc(-c3cccnc3)nn2)cc1` [3-(1-(8-([1,1′-biphenyl]-2-yloxy)octyl)-1H-1,2,3-triazol-4-yl)pyridine], the “inhibition” value in series [5] was “able to inhibit”. The IC50 in series [3] is less than 300 nM.

For `c1cncc(-c2cn(CCCCCCOc3ccccc3-c3cccnc3)nn2)c1` [3-(2-((6-(4-(pyridin-3-yl)-1H-1,2,3-triazol-1-yl)hexyl)oxy)phenyl)pyridine], the “RLM stability % substrate residue (area peak)” value in series [1] was more than 95%. Besides, the “Metabolites generated from hydrolyses” value in series [2] is “no”. The “inhibition” value in series [5] is “able to inhibit”. Besides, the IC50 in series [3] was less than 300 nM. Also, the “HLM stability % substrate residue (area peak)” value in series [4] was more than 99%.

As to `O=C(Nc1ccccc1-c1ccccc1)OCCCCCCn1cc(-c2cccnc2)nn1` [6-(4-(pyridin-3-yl)-1H-1,2,3-triazol-1-yl)hexyl[1,1′-biphenyl]-2-ylcarbamate], in series [5], the “inhibition” value is “able to inhibit”. Further, the IC50 in series [3] was less than 300 nM.

In the case of `O=C(Nc1ccccc1-c1ccccc1)OCCCCCCCn1cc(-c2cccnc2)nn1` [7-(4-(pyridin-3-yl)-1H-1,2,3-triazol-1-yl)heptyl[1,1′-biphenyl]-2-ylcarbamate], in series [5], the “inhibition” value was “able to inhibit”. The IC50 in series [3] was less than 300 nM.

As for `O=C(Nc1ccc(CCCn2cc(-c3cccnc3)nn2)cc1)c1ccccc1-c1ccccc1` [N-(4-(3-(4-(pyridin-3-yl)-1H-1,2,3-triazol-1-yl)propyl)phenyl)-[1,1′-biphenyl]-2-carboxamide], in series [1], the “RLM stability % substrate residue (area peak)” value is recorded as more than 99%. In addition, in series [2], the “Metabolites generated from hydrolyses” value is reported as “no”. Further, the IC50 in series [3] is less than 300 nM. Besides, the “HLM stability % substrate residue (area peak)” value in series [4] was more than 98%.

Take `O=C(NCCc1ccc(Cn2cc(-c3cccnc3)nn2)cc1)c1ccccc1-c1ccccc1` [N-(4-((4-(pyridin-3-yl)-1H-1,2,3-triazol-1-yl)methyl)phenethyl)[1,1′-biphenyl]-2-carboxamide]: in series [1], the “RLM stability % substrate residue (area peak)” value is more than 99%. In addition, the “Metabolites generated from hydrolyses” value in series [2] was “no”. Besides, the IC50 in series [3] was less than 300 nM. For the same compound, the “HLM stability % substrate residue (area peak)” value in series [4] is more than 99%.

`O=C(NCCCCCCn1cc(-c2cccnc2)nn1)c1ccccc1-c1ccccc1` [N-(6-(4-(pyridin-3-yl)-1H-1,2,3-triazol-1-yl)hexyl)-[1,1′-biphenyl]-2-carboxamide]: the “inhibition” value in series [5] is reported as “able to inhibit”. Moreover, in series [3], the IC50 is less than 300 nM.

`O=S(=O)(NCCCCCCCCn1cc(-c2cccnc2)nn1)c1ccccc1-c1ccccc1` [N-(8-(4-(pyridin-3-yl)-1H-1,2,3-triazol-1-yl)octyl) biphenyl-2-sulfonamide]: the “RLM stability % substrate residue (area peak)” value in series [1] is more than 99%. Further, the “Metabolites generated from hydrolyses” value in series [2] is “no”. In addition, the IC50 in series [3] is less than 300 nM. In series [4], the “HLM stability % substrate residue (area peak)” value was more than 99%.
